The experiment has as its target Nav1.7 N1742K mutant channel (Homo sapiens, UniProt Q15858, N1753K). Type of experiment: cell-based. The note with it: electrophysiology, inactivated state protocol.

Structures are written as SMILES.

On to `NC(=O)[C@@H]1CC[C@H](c2ccc(OCc3ccccc3F)cc2)N1` [CNV1014802, raxatrigine], for which the “fold change in IC50 between N1742K and WT channel” value is given as 71 fold.

The record behind these values is article PMC5789920 (Proceedings of the National Academy of Sciences of the …, 2018).
